The values below come from patent publication US4455419A, “2'-Modified kanamycins and production thereof” (Zaidan Hojin Biseibutsu Kagaku Kenkyu Kai, priority 1981, dated 1984).

Holding throughout (test): Minimum inhibitory concentration, standard serial dilution method
Common to all, as to assay type: cell-based

In experiment [1] the test system is Staphylococcus epidermidis 109. The following applies: read-out: Minimum Inhibitory Concentrations. The source says:
(§1) For comparison purpose, the minimum inhibitory concentrations (mcg/ml) of the parent compound, kanamycin A are also shown in Table II.

In experiment [2] the test system is Pseudomonas aeruginosa IAM-1007. Particulars: read-out: Minimum Inhibitory Concentrations.
Text: as §1

In experiment [3] the test system is Pseudomonas aeruginosa E-2 IAM-1007. The following applies: read-out: Minimum Inhibitory Concentrations.
Text: as §1

Experiment [4] deals with Klebsiella pneumoniae PCI-602. Particulars: read-out: Minimum Inhibitory Concentrations.
Text: as §1

The subject of experiment [5] is Serratia marcescens No. 1. Particulars: read-out: Minimum Inhibitory Concentrations.
Text: as §1

The test system of experiment [6] is Escherichia coli JR66/W677 (A-20683). Particulars: read-out: Minimum Inhibitory Concentrations.
Text: as §1

In experiment [7] the test system is Staphylococcus aureus Rosenbach FDA 209-OJC-1. Particulars: read-out: Minimum Inhibitory Concentrations.
Text: as §1

Experiment [8] concerns Salmonela typhimlium LT-2. Particulars: 24 h, read-out: Minimum Inhibitory Concentrations.
Text: as §1

For a further experiment, the system named is Escherichia coli No. 29. Particulars: read-out: Minimum Inhibitory Concentrations.
Text: as §1

The test system of the next experiment is Providencia morgani Kono. Particulars: read-out: Minimum Inhibitory Concentrations.
Text: as §1

Where [9] appears, read: Escherichia coli JR66/W677 (A-20683), nutrient agar, 37° C., 24 hours.
Where [10] appears, read: Escherichia coli No. 29, nutrient agar, 37° C., 24 hours.
Where [11] appears, read: Staphylococcus epidermidis, 109, 24 h.
[12] abbreviates: Pseudomonas aeruginosa, IAM1007, 24 h.
Setting [13] is: Klebsiella pneumoniae, PCI602, 24 h.
Where [14] appears, read: Serratia marcescens, NO.1, 24 h.
Where [15] appears, read: Staphylococcus aureus, FDA209, 24 h.

In brackets after ≈: the same amount, converted by molar mass. Like-named read-outs stand apart in the source and are kept apart here. Bounds are passed on as bounds.

With `NC[C@H]1O[C@H](O[C@H]2[C@H](O)[C@@H](O[C@H]3O[C@H](CO)[C@@H](O)[C@H](N)[C@H]3O)[C@H](N)C[C@@H]2N)C[C@@H](O)[C@@H]1O` [2'-Deoxykanamycin A, 2'-deoxykanamycin A], the MIC was determined as 0.2 µg/mL (≈ 0.427 µM) in [1] (Staphylococcus epidermidis 109, nutrient agar, 37° C., 24 hours); 1.56 µg/mL (≈ 3.33 µM) in experiment [2] (IAM1007, Pseudomonas aeruginosa IAM-1007, nutrient agar, 37° C., 24 hours); 6.25 µg/mL (≈ 13.3 µM) in experiment [3] (IAM1007, Pseudomonas aeruginosa E-2 IAM-1007, nutrient agar, 37° C., 24 hours); 0.78 µg/mL (≈ 1.66 µM) in experiment [4] (PCI602, Klebsiella pneumoniae PCI-602, nutrient agar, 37° C., 24 hours); 0.78 µg/mL (≈ 1.66 µM) in experiment [5] (Serratia marcescens No. 1, nutrient agar, 37° C., 24 hours); 50 µg/mL (≈ 107 µM) in experiment [6] (setting [9]). For the same compound, the MIC was determined as 0.05 µg/mL (≈ 0.107 µM) in experiment [7] (FDA209, Staphylococcus aureus Rosenbach FDA 209-OJC-1, nutrient agar, 37° C., 24 hours); 0.78 µg/mL (≈ 1.66 µM) in experiment [8]; 0.39 µg/mL (≈ 0.832 µM) in the experiment on Escherichia coli No. 29 (setting [10]); 0.78 µg/mL (≈ 1.66 µM) in the experiment with Providencia morgani Kono (Providencia morgani Kono, nutrient agar, 37° C., 24 hours).

With `NC[C@H]1O[C@H](O[C@H]2[C@H](O)[C@@H](O[C@H]3O[C@H](CO)[C@@H](O)[C@H](N)[C@H]3O)[C@H](N)C[C@@H]2N)[C@@H](O)[C@@H](O)[C@@H]1O` [2'-Epikanamycin A, 2'-epikanamycin A], the MIC in experiment [1] (setting [11]) is 25 µg/mL (≈ 51.6 µM); in experiment [2] (setting [12]) it was 50 µg/mL (≈ 103 µM); in experiment [3] (setting [12]), above 100 µg/mL; in [4] (setting [13]) it was 6.25 µg/mL (≈ 12.9 µM); in [5] (setting [14]), 12.5 µg/mL (≈ 25.8 µM); in experiment [6] (setting [9]) it was above 100 µg/mL. In addition, the MIC stood at 0.39 µg/mL (≈ 0.805 µM) in experiment [7] (setting [15]); 6.25 µg/mL (≈ 12.9 µM) in [8]; 6.25 µg/mL (≈ 12.9 µM) with Escherichia coli No. 29 (Escherichia coli, NO.29, 24 h); 6.25 µg/mL (≈ 12.9 µM) with Providencia morgani Kono (Providencia, 24 h).

As to `NC[C@H]1O[C@H](O[C@H]2[C@H](O)[C@@H](O[C@H]3O[C@H](CO)[C@@H](O)[C@H](N)[C@H]3O)[C@H](N)C[C@@H]2N)[C@@H](N)[C@@H](O)[C@@H]1O` [2'-Epikanamycin B, 2'-epikanamycin B], the MIC in experiment [1] (setting [11]) is 50 µg/mL (≈ 103 µM); in experiment [2] (setting [12]), above 100 µg/mL; in [3] (setting [12]), above 100 µg/mL; in [4] (setting [13]), 50 µg/mL (≈ 103 µM); in [5] (setting [14]), 100 µg/mL (≈ 207 µM); in [6] (Escherichia coli, 24 h), above 100 µg/mL. The MIC in [7] (setting [15]) was 1.56 µg/mL (≈ 3.23 µM); in experiment [8], 50 µg/mL (≈ 103 µM); with Escherichia coli No. 29 (Escherichia coli, NO.29, 24 h), 50 µg/mL (≈ 103 µM); in the experiment on Providencia morgani Kono (Providencia, 24 h) it was 50 µg/mL (≈ 103 µM).

In the case of `NC[C@H]1O[C@H](O[C@H]2[C@H](O)[C@@H](O[C@H]3O[C@H](CO)[C@@H](O)[C@H](N)[C@H]3O)[C@H](N)C[C@@H]2N)[C@H](O)[C@@H](O)[C@@H]1O` [Kanamycin A, kanamycin A, reference compound], the MIC in experiment [1] (setting [11]) is 3.13 µg/mL (≈ 6.46 µM); in experiment [2] (setting [12]), 12.5 µg/mL (≈ 25.8 µM); in experiment [3] (setting [12]), 50 µg/mL (≈ 103 µM); in experiment [4] (setting [13]), 1.56 µg/mL (≈ 3.22 µM); in experiment [5] (setting [14]), 3.13 µg/mL (≈ 6.46 µM); in [6] (setting [9]), above 100 µg/mL. The MIC in [7] (setting [15]) is 0.1 µg/mL (≈ 0.206 µM); in experiment [8] it was 1.56 µg/mL (≈ 3.22 µM); with Escherichia coli No. 29 (setting [10]), 0.78 µg/mL (≈ 1.61 µM); in the experiment with Providencia morgani Kono (Providencia, 24 h) it was 3.13 µg/mL (≈ 6.46 µM).
